Source: patent US5064856A, “Novel HMG-CoA synthase inhibitors” (Merck & Co., Inc., priority 1989, dated 1991)
pIC50: −log10 of the molar value.

Target: T1, HMG-CoA synthase (Rattus norvegicus, UniProt P17425)
T1 construct: The livers from male Charles River CD rats (225-350 g) were homogenized in 0.25M sucrose; from tissue; host or cells: liver of male Charles River CD rats
T1 sequence (P17425 1-520): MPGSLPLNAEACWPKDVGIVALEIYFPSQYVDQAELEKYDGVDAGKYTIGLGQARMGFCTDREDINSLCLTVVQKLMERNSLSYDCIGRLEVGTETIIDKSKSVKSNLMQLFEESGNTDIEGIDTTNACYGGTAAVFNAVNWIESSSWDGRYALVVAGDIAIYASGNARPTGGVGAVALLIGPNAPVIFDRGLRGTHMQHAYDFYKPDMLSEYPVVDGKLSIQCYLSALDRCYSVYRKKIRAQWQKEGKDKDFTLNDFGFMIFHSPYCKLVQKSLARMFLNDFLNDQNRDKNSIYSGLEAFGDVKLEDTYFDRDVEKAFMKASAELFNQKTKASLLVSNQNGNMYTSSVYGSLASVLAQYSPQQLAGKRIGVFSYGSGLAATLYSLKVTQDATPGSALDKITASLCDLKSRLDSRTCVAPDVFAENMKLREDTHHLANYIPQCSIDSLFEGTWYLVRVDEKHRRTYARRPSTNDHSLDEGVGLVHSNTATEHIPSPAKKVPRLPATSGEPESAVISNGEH
Assay: HMG-CoA synthase inhibition assay
Type: biochemical
Settings: enzyme from rat liver; 5 min preincubation, 30°, pH 8.0; [14C]-acetyl-CoA
Method: The intrinsic HMG--CoA synthase inhibition activity of the compounds of this invention is measured by the standard in vitro protocol described below:
The livers from male Charles River CD rats (225-350 g) were homogenized in 0.25M sucrose which was adjusted with phenylmethylsulfonylfluoride (PMSF) and N-p-tosyl-1-lysine chloromethyl ketone (TLCK) so that the final concentration of each was 50 and 25 μg/ml, respectively. The homogenate was first centrifuged at 700×g for 10 minutes, the supernatant decanted and recentrifuged at 7,700×g for 20 minutes. This supernatant was filtered through a fine nylon screen to remove most of the fat layer and recentrifuged at 100,000×g for 1 hour. This supernatant was removed and 1M potassium phosphate, dithiothreitol (DTT) and ethylene glycolbis(β-aminoethyl ether)-N,N,N',N'-tetraacetic acid (EGTA) added to give a final concentration of 0.1M (pH 7.2), 0.5 mM and 0.1 mM, respectively. Solid ammonium sulfate was added to 50% saturation to the protein solution, it was centrifuged at 15,000×g and the supernatant discarded. This precipitated protein could be stored at -70° C. for at least one month with very little loss of activity. The ammonium sulfate precipitate was dissolved in an minimal amount of 0.06M potassium phosphate buffer (pH 7.2) containing 0.5 mM dithiothreitol and 0.1 mM EGTA (referred to as 0.06M phosphate buffer) and dialyzed overnight against 2 liters of the same buffer to remove the ammonium sulfate and to inactivate HMG--CoA lyase [Clinkenbeard, et al., J. Biol. Chem. 250, 3108-3116 (1975)].
The dialyzed extract was added to a column of DEAE-52 (Whatman) which had been equilibrated with 0.06M phosphate buffer (10 mg of protein to 1 ml bed volume of the resin). The DEAE-cellulose was eluted with 0.06M phosphate buffer until the optical density at 280 nm was essentially zero. This fraction contained the β-ketoacetyl-CoA thiolase activity. The HMG--CoA synthase was eluted from the column with 0.1M KCl in 0.06M phosphate buffer (pH 7.2) containing 0.5 mM DTT and 0.1 mM EGTA, and was virtually free of all thiolase activity. The protein was precipitated by the addition of ammonium sulfate to give 50% saturation. This solution was stirred for 10 minutes at 4° C. and the precipitate collected by centrifugation at 15,000 rpm for 10 minutes. The supernatant was discarded and the precipitate dissolved in a minimum of 0.06M phosphate buffer, pH 7.2 (about 10 ml) and the enzyme stored at -80° C.
HMG-- CoA Synthase Inhibition Assay
Enzyme protein (ca. 12.2 μg) was added to a solution containing 117 mM Tris-HCl (pH 8.0), 11.7 mM MgCl2, 1.17 mM Ethylenediaminetetraacetic acid (EDTA), 0.58 mM dithiothreitol, and the indicated concentrations of the test compound (added as a 2 μg/ml solution in dimethylsulfoxide). The incubation took place in a volume of 0.085 ml at 30° in a shaking water bath. After 5 minutes, 15 μl of a solution containing acetoacetyl-CoA and 0.1 μCi of 1-[^14 C]-acetyl-CoA was added to give a final concentrations of 0.1 and 0.4 mM, respectively. […] Radioactivity was determined in a Packard Tri-Carb liquid scintillation counter. Percent inhibition is calculated by the formula: [formula] IC50 values were determined by plotting the log of the concentration of the test compound verses the percentage inhibition and fitting a straight line to the resulting data by using the least squares method.

**Q.** With `CC=CCCCCC=CC(=O)NC1CC2(OC1=O)C(O)C1OC1C1OC12` (centres unmarked) [Compound A-1] as the molecule, how does the pIC50 read?
**A.** The pIC50 was < 5.00.

**Q.** `CC=CCCCCC=CC(=O)NC1CC2(OC1=O)C(=O)C1OC1C(O)C2O` (centres unmarked) [Compound A-2, N-(4,5-dihydro-4',5'-dihydroxy-2',5-dioxospiro[furan-2(3H),3'-[7]oxabicyclo[4.1.0]-hept]-4-yl)-2,8-decadienamide] was tested. Which pIC50 did it give?
**A.** The pIC50 was 5.60.

**Q.** With `CC=CCCCCC=CC(=O)NC1CC2(OC1=O)C(O)C1OC1C1OC12` (centres unmarked) [Compound A] as the molecule, how does the pIC50 read?
**A.** The pIC50 was 5.16.

**Q.** With `CC=CCCCCC=CC(=O)NC(CC1(O)C(=O)C2OC2C2OC21)C(=O)OC` (stereo not drawn) [Compound B, 3,8-Dioxatricyclo(5.1.0.0^2,^4)octane-5-propanoic acid, 5-hydroxy-6-oxo-α-((1-oxo-2,8-decadienyl)amino)-, methyl ester] as the molecule, how does the pIC50 read?
**A.** The pIC50 was 6.74.

**Q.** With `CC=CCCCCC=CC(=O)NC1CC2(OC1=O)C(=O)C1OC1C1OC12` (centres unmarked) [Compound C] as the molecule, how does the pIC50 read?
**A.** Its pIC50 is 6.44.
